23 compounds from patent US20230167103A1 (Bayer Aktiengesellschaft, priority 2020, published 2023) can be followed below.

pIC50: −log10 of the molar value.

For orientation: pIC50 means the IC50 on a negative log10 scale, so that one unit is a factor of ten.

T1 sequence (Q13574 with tags, fused parts or gaps): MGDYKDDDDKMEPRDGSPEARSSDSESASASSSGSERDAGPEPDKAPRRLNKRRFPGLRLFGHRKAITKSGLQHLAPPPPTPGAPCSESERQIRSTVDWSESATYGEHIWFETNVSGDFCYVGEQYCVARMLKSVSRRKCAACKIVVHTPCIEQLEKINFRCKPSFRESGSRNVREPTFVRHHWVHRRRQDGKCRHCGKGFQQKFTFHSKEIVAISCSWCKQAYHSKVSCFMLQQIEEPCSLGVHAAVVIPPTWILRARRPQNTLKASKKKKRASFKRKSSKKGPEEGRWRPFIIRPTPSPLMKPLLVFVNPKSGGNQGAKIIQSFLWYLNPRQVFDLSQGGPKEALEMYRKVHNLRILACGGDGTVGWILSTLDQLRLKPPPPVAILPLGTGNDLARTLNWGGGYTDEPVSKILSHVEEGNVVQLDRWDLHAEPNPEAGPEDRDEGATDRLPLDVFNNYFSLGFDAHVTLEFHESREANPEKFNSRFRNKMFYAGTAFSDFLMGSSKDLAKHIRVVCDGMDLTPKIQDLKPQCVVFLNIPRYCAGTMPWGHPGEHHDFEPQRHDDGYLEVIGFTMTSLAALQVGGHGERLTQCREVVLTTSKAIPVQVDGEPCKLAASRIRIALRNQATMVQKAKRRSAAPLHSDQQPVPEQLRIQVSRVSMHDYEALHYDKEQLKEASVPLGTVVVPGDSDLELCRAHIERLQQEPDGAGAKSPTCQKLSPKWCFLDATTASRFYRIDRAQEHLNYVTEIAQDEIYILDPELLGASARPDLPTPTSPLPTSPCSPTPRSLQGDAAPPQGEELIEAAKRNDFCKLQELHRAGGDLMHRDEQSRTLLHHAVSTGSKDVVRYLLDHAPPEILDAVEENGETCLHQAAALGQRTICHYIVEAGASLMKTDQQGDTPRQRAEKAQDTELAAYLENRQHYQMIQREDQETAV

One experiment has as its target T1, human DGKζ (Homo sapiens, UniProt Q13574).
T1 construct: made in house; host or cells: Sf9 insect cells, baculovirus
Briefly: Human DGKζ kinase activity inhibition assay (ADP-Glo). Particulars: example compounds; recombinant full-length human DGKζ, 1,2-dioleoyl-sn-glycerol 7 μM, ATP 55 μM, 20 min at 22° C.; read-out: IC50 values of examples in in vitro human DGKζ kinase activity inhibition assays. It is filed as biochemical. On the procedure: Human diacylglycerol kinase zeta (DGKζ) inhibitory activity of compounds of the present invention was quantified employing the human DGKζ kinase activity assay as described in the following paragraphs. In essence, the enzyme activity was measured by quantification of the adenosine-di-phosphate (ADP) generated as a co-product of the enzyme reaction via the “ADP-Glo™ Kinase Assay” kit from the company Promega. This detection system works as follows: In a first step the adenosine-tri-phosphate (ATP) not consumed in the kinase reaction is quantitatively converted to cyclic adenosine-mono-phosphate (cAMP) employing an adenylate cyclase (“ADP-Glo-reagent”), then the adenylate cyclase is stopped and the ADP generated in the kinase reaction is converted to ATP, which subsequently generates in a luciferase-based reaction a glow-luminescence signal (“Kinase Detection Reagent”).
C-terminally FLAG-tagged, recombinant full-length human DGKζ (inhouse expressed in baculovirus infected insect cells, purified using anti-Flag pulldown and size exclusion chromatography) was used as enzyme. As an alternative, commercially available enzyme by Carnabio can be used. As substrate for the kinase, 1,2-dioleoyl-sn-glycerol, reconstituted in octyl-β-D-glucopyranoside micelles, was used. […] Subsequently, 22.55 volumes of a 510 mM solution of octyl-β-D-glucopyranoside (Sigma-Aldrich, Cat. #O8001-10G) in 50 mM MOPS buffer (pH 7.4) were added, and the mixture was sonicated in an ultrasonic bath for 20 s. Then 35 volumes of 50 mM MOPS buffer (pH 7.4) were added to yield a solution of 0.28 mM 1,2 dioleoyl-sn-glycerol and 200 mM octyl-β-D-glucopyranoside, which was aliquoted, flash-frozen in liquid nitrogen, and stored at −20° C. until use.
For the assay 50 nl of a 100-fold concentrated solution of the test compound in dimethyl sulfoxide (DMSO, Sigma) was pipetted into either a white 1536-well or a white low-volume 384-well microtiter plate (both Greiner Bio-One, Frickenhausen, Germany). […] The concentration of DGKζ was adjusted depending of the activity of the enzyme lot and was chosen appropriate to have the assay in the linear range, a typical concentration is about 0.1 nM. The reaction was stopped by the addition of 2.5 μL of “ADP-Glo-reagent” (1 to 1.5 diluted with water) and the resulting mixture was incubated at 22° C. for 1 h to convert the ATP not consumed in the kinase reaction completely to cAMP. Subsequently 2.5 μl of the “kinase detection reagent” (1.2 fold more concentrated than recommended by the producer) were added, the resulting mixture was incubated at 22° C. for 1 h and then the luminescence measured with a suitable measurement instrument (e.g. Viewlux™ from Perkin-Elmer). The amount of emitted light was taken as a measure for the amount of ADP generated and thereby for the activity of the DGKζ.
The data were normalised (enzyme reaction without inhibitor=0% inhibition, all other assay components but no enzyme=100% inhibition).
On the technique in general: ADP-Glo first removes unused ATP, then detects ADP through luciferase.
As for `CC(C(N)=O)N(c1ccc(F)cc1)c1nc(N)c(C(=O)c2cc(C(=O)NC3(C)CCCC3)no2)s1` (racemic) [Example 39, rac-5-[4-amino-2-(N-(2-amino-1-methyl-2-oxo-ethyl)-4-fluoro-anilino)thiazole-5-carbonyl]-N-(1-methylcyclopentyl)isoxazole-3-carboxamide], the negative logarithm of the IC50 (pIC50) is 7.28.

Consider `CC(C(N)=O)N(c1ccc(F)cc1)c1nc(N)c(C(=O)c2cc(Br)no2)s1` (racemic) [Example 6, rac-2-(N-[4-amino-5-(3-bromoisoxazole-5-carbonyl)thiazol-2-yl]-4-fluoro-anilino)propanamide], for which the pIC50 was 6.91. On to `C[C@H](C(N)=O)N(c1ccc(F)cc1)c1nc(N)c(C(=O)c2cc(-c3ccccc3)no2)s1` [Example 3.1, (R)-2-(N-[4-amino-5-(3-phenylisoxazole-5-carbonyl)thiazol-2-yl]-4-fluoro-anilino)propanamide], for which the pIC50 was 7.21. Same read-out and setting: under `CC(C(N)=O)N(c1ccc(F)cc1)c1nc(N)c(C(=O)c2cc(C(=O)NC3CCCC3)no2)s1` (racemic) [Example 25, rac-5-[4-amino-2-(N-(2-amino-1-methyl-2-oxo-ethyl)-4-fluoro-anilino)thiazole-5-carbonyl]-N-cyclopentyl-isoxazole-3-carboxamide] stands 6.87; under `CC(C(N)=O)N(c1ccc(F)cc1)c1nc(N)c(C(=O)c2cc(CO)no2)s1` (racemic) [Example 65, rac-2-(N-[4-amino-5-[3-(hydroxymethyl)isoxazole-5-carbonyl]thiazol-2-yl]-4-fluoro-anilino)propanamide], 6.12; under `CC(C(N)=O)N(c1ccc(F)cc1)c1nc(N)c(C(=O)c2nc(-c3ccccc3)no2)s1` (racemic) [Example 51, rac-2-(N-[4-amino-5-(3-phenyl-1,2,4-oxadiazole-5-carbonyl)thiazol-2-yl]-4-fluoro-anilino) propanamide], 7.77. Turning to `CC(C(N)=O)N(c1ccc(F)cc1)c1nc(N)c(C(=O)c2cc(C(=O)Nc3ccncc3)no2)s1` (racemic) [Example 16, rac-5-[4-amino-2-(N-(2-amino-1-methyl-2-oxo-ethyl)-4-fluoro-anilino)thiazole-5-carbonyl]-N-(4-pyridyl)isoxazole-3-carboxamide], the negative-log IC50 (pIC50) was 6.38. Still for that read-out and setting: under `CC(C(N)=O)N(c1ccc(F)cc1)c1nc(N)c(C(=O)c2cc(C(=O)NC3(C)CCC3)no2)s1` (racemic) [Example 30, rac-5-[4-amino-2-(N-(2-amino-1-methyl-2-oxo-ethyl)-4-fluoro-anilino)thiazole-5-carbonyl]-N-(1-methylcyclobutyl)isoxazole-3-carboxamide] stands 7.06. Take `CC(C(N)=O)N(c1ccc(F)cc1)c1nc(N)c(C(=O)c2cc(OCC3CCC3)no2)s1` (racemic) [Example 80, rac-2-(N-[4-amino-5-[3-(cyclobutylmethoxy)isoxazole-5-carbonyl]thiazol-2-yl]-4-fluoro-anilino)propanamide]: the pIC50 was 7.51. In the case of `CC(C(N)=O)N(c1ccc(F)cc1)c1nc(N)c(C(=O)c2nc(C(C)(C)C)no2)s1` (racemic) [Example 53, rac-2-(N-[4-amino-5-(3-tert-butyl-1,2,4-oxadiazole-5-carbonyl)thiazol-2-yl]-4-fluoro-anilino)propanamide], the pIC50 was 7.60. With `CC(C(N)=O)N(c1ccc(F)cc1)c1nc(N)c(C(=O)c2cc(C(=O)NCC#N)no2)s1` (racemic) [Example 35, rac-5-[4-amino-2-(N-(2-amino-1-methyl-2-oxo-ethyl)-4-fluoro-anilino)thiazole-5-carbonyl]-N-(cyanomethyl)isoxazole-3-carboxamide], the pIC50 is 6.25. Still for that read-out and setting: under `CC(C(N)=O)N(c1ccc(F)cc1)c1nc(N)c(C(=O)c2cc(C(=O)NCC(F)F)no2)s1` (racemic) [Example 17, rac-5-[4-amino-2-(N-(2-amino-1-methyl-2-oxo-ethyl)-4-fluoro-anilino)thiazole-5-carbonyl]-N-(2,2-difluoroethyl)isoxazole-3-carboxamide] stands 6.16. On to `CC(C(N)=O)N(c1ccc(F)cc1)c1nc(N)c(C(=O)c2cc(-c3ccc(OC(F)(F)F)cc3)no2)s1` (racemic) [Example 69, rac-2-(N-[4-amino-5-[3-[4-(trifluoromethoxy)phenyl]isoxazole-5-carbonyl]thiazol-2-yl]-4-fluoro-anilino)propanamide], for which the pIC50 is 6.93.

Consider `CC(C(N)=O)N(c1ccc(F)cc1)c1nc(N)c(C(=O)c2cc(C(=O)Nc3ccccc3)no2)s1` (racemic) [Example 10, rac-5-[4-amino-2-(N-(2-amino-1-methyl-2-oxo-ethyl)-4-fluoro-anilino)thiazole-5-carbonyl]-N-phenyl-isoxazole-3-carboxamide], for which the pIC50 was 7.64.

Turning to `CC(C(N)=O)N(c1ccc(F)cc1)c1nc(N)c(C(=O)c2cc(CN3CCC(F)C3)no2)s1` (mixture of isomers) [Example 77, 2-(N-[4-amino-5-[3-[(3-fluoropyrrolidin-1-yl)methyl]isoxazole-5-carbonyl]thiazol-2-yl]-4-fluoro-anilino)propanamide], the negative-log IC50 (pIC50) is 6.62. The same measure, in the same setting: next, `CC(C(N)=O)N(c1ccc(F)cc1)c1nc(N)c(C(=O)c2nc(C3CCCC3)no2)s1` (racemic) [Example 59, rac-2-(N-[4-amino-5-(3-cyclopentyl-1,2,4-oxadiazole-5-carbonyl)thiazol-2-yl]-4-fluoro-anilino)propanamide]: 7.92; `CC(C(N)=O)N(c1ccc(F)c(F)c1)c1nc(N)c(C(=O)c2cc(C(=O)NC3(C)CCC3)no2)s1` (single isomer, unassigned) [Example 44.2, 5-[4-amino-2-(N-(2-amino-1-methyl-2-oxo-ethyl)-3,4-difluoro-anilino)thiazole-5-carbonyl]-N-(1-methylcyclobutyl)isoxazole-3-carboxamide]: 5.35.

For `CC(C(N)=O)N(c1ccc(F)cc1)c1nc(N)c(C(=O)c2cc(C(=O)NC3(C4CC4)CC3)no2)s1` (racemic) [Example 24, rac-5-[4-amino-2-(N-(2-amino-1-methyl-2-oxo-ethyl)-4-fluoro-anilino)thiazole-5-carbonyl]-N-(1-cyclopropylcyclopropyl)isoxazole-3-carboxamide], the pIC50 is 6.92. In the case of `CC(C(N)=O)N(c1ccc(F)cc1)c1nc(N)c(C(=O)c2cc(C(=O)Nc3cnn(C)c3)no2)s1` (racemic) [Example 12, rac-5-[4-amino-2-(N-(2-amino-1-methyl-2-oxo-ethyl)-4-fluoro-anilino)thiazole-5-carbonyl]-N-(1-methylpyrazol-4-yl)isoxazole-3-carboxamide], the pIC50 is 6.03. Regarding `CC(C(N)=O)N(c1ccc(F)cc1)c1nc(N)c(C(=O)c2cc(C(=O)NC3CCC3)no2)s1` (racemic) [Example 21, rac-5-[4-amino-2-(N-(2-amino-1-methyl-2-oxo-ethyl)-4-fluoro-anilino)thiazole-5-carbonyl]-N-cyclobutyl-isoxazole-3-carboxamide], the pIC50 was 6.53.

In the case of `CC(C(N)=O)N(c1ccc(F)cc1)c1nc(N)c(C(=O)c2cc(C(=O)N3CCCC3)no2)s1` (racemic) [Example 19, rac-2-(N-[4-amino-5-[3-(pyrrolidine-1-carbonyl)isoxazole-5-carbonyl]thiazol-2-yl]-4-fluoro-anilino)propanamide], the pIC50 is 6.50.

The experiment is the same for the next values; noted with them: intermediates (comparative, lacking the R2 alkyl-carboxamide group); same assay conditions; read-out: IC50 values of intermediates in in vitro human DGKζ kinase activity inhibition assays.
As to “rac-5-[4-amino-2-(N-(2-amino-1-methyl-2-oxo-ethyl)-4-fluoro-anilino)thiazole-5-carbonyl]-N-(2-pyridyl)isoxazole-3-carboxamide [Example 28]”, the pIC50 was 4.71. On the same count and under the same terms, under “rac-5-[4-amino-2-(N-(2-amino-1-methyl-2-oxo-ethyl)-4-fluoro-anilino)thiazole-5-carbonyl]-N-(1-cyclopropylcyclopropyl)isoxazole-3-carboxamide [Example 24]” stands < 4.70.
